Literature values in patent US7435725B2, “Oral compositions and methods for prevention, reduction and treatment of radiation injury” (The Quigly Corporation, priority 2001, dated 2008).

Columns and labels:
[1] = tested on: Salmonella Typhimurium TA98 and TA 1538; conditions: Trp-P-2 (3-amino-1-methyl-5H-pyrido(4,3-b)indole)
[2] = tested on: E. coli B/r WP2 trp-

SMILES	reduction of mutation rate induced by Trp-P-2 [1]	reduction of mutations due to γ-radiation [2]
[Ge+4].[O-2].[O-2] [Germanium oxide]	40-67 folds	–
O=C(O)C[CH2][Ge](=[O])[O][Ge](=[O])[CH2]CC(=O)O [Ge-132]	–	twenty-fold
